Consider 23 compounds from ChEMBL document CHEMBL1201862, “PubChem BioAssay data set” (2004).

Each structure is given as a SMILES string. The source made the active and inactive calls.

Test [1] has as its target DNA dC->dU-editing enzyme APOBEC-3G (Homo sapiens, UniProt Q9HC16). Briefly: Dose Response confirmation of small molecule APOBEC3G DNA Deaminase Inhibitors via a fluorescence-based single-stranded DNA deaminase assay. [Related pubchem assays (depositor defined):AID493012, AID493028]. The test is classed as functional.
Test [2] addresses T1, Rac GTPase-activating protein 1 (Homo sapiens, UniProt Q9H0H5).
T1 sequence (Q9H0H5 whole entry): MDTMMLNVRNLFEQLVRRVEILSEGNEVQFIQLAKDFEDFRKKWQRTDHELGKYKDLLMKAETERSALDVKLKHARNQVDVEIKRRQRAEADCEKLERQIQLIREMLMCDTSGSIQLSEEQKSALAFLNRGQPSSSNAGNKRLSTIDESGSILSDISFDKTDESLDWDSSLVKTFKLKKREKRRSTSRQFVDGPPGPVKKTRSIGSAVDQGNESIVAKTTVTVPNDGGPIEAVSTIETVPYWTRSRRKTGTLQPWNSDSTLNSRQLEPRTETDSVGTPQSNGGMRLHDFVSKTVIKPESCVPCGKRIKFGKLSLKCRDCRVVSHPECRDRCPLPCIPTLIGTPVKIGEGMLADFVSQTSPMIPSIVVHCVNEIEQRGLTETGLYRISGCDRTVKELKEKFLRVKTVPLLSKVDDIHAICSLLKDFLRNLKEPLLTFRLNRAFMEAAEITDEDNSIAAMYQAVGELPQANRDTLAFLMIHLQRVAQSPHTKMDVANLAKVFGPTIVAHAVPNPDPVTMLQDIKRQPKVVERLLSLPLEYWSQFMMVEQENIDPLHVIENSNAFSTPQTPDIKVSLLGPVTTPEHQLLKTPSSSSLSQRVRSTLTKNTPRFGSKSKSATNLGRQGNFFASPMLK
Briefly: blockers of MgcRacGAP-driven Rac1 GTP hydrolysis – biochemical, ADP Hunter fluorescence, primary and confirmatory, confirmation (AID 624330). It is filed as functional.

Test [3] can be described thus: cells. The test is classed as functional, cell-based.
The nature of test [4]: cells. It is filed as functional, cell-based. The source holds these as a separate data set.
The nature of test [5]: HEK-293T cell viability reduction – luminescence, B-cell screen hits, cytotoxicity control for BCR NF-kB inhibitor project, dose response (AID 489021).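 Also: HEK-293T cells carrying an NF-kB luciferase reporter; cells exposed to compound for about 14 hours before viability readout.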 The test is classed as functional, cell-based.
The target of test [6] is Large T antigen (Simian virus 40, UniProt P03070). It is filed as functional, Betapolyomavirus macacae.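 Also: Confirmatory-stage PubChem screen for compounds that inhibit SV40 T antigen.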
Chain of Large T antigen (P03070 whole entry): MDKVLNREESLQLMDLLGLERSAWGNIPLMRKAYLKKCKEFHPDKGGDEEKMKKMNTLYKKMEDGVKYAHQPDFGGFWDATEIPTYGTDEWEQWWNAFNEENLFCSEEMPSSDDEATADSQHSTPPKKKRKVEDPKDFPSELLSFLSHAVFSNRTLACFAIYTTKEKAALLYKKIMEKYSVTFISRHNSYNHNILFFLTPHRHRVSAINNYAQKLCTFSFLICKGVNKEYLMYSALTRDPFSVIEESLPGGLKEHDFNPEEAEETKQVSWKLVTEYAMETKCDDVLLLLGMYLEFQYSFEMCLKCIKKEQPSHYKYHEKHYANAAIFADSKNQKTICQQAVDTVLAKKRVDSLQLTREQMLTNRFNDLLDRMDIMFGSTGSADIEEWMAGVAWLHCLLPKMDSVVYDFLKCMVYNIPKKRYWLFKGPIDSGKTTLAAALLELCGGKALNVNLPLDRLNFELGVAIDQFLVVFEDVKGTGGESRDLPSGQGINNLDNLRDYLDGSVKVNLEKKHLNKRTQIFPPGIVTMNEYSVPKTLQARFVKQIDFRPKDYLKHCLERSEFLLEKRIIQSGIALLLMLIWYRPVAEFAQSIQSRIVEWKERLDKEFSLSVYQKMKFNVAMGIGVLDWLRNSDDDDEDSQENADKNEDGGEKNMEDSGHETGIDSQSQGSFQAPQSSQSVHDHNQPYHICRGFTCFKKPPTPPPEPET
The target in test [7] is Luciferin 4-monooxygenase (Photinus pyralis, UniProt P08659). Briefly: inhibition of purified Photinus pyralis luciferase – biochemical, luminescence, dose response (AID 1891).
Chain of Luciferin 4-monooxygenase (P08659 whole entry): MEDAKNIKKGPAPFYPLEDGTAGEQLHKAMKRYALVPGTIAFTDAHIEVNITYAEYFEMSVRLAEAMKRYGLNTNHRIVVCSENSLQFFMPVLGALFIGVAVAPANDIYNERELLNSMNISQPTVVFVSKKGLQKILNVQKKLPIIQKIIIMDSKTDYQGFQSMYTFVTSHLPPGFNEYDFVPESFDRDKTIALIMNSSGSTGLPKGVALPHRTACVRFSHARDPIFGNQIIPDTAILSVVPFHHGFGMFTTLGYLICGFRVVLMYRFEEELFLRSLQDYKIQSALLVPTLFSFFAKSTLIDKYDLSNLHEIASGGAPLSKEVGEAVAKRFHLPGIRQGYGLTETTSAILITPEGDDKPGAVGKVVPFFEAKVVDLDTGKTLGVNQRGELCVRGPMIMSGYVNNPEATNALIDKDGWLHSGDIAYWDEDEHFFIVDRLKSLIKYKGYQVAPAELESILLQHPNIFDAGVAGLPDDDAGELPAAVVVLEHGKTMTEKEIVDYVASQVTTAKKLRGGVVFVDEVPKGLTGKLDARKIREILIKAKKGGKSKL
Test [8] is described as follows: Luminescence Cell-Based Dose Confirmation HTS to Identify Inhibitors of Platelet Dense Granule Release. [Related pubchem assays: 1663 (Primary HTS), 1678 (Summary of Project)]. It is filed as functional.
Test [9] concerns the target FAD-linked sulfhydryl oxidase ALR (Homo sapiens, UniProt P55789). Briefly: ALR-catalysed DTT oxidation blockers – biochemical, H2O2 detection, luminescence, cherry-pick, dose response (AID 493248).
Test [10] can be described thus: Trypanosoma cruzi growth suppression in host cells – NIH3T3 host cells, beta-gal luminescence, confirmation (AID 2044).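 Also: intracellular parasites grown in NIH/3T3 mouse fibroblasts as host cells; luminescent beta-galactosidase reporter signal from transgenic T. cruzi replicating inside host cells; inhibitors lower the luminescence signal.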 It is filed as functional, cell-based.
The nature of test [11]: NIH3T3 cell viability loss – ATP luminescence, mouse fibroblasts, counter-screen, dose response (AID 2010).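 Also: cells exposed to compound for about 90 hours before reading.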 It is filed as functional, cell-based. Background: The purpose of a counterscreen is to sort out artefacts and off-target activity.

Chain of DNA dC->dU-editing enzyme APOBEC-3G (Q9HC16 whole entry): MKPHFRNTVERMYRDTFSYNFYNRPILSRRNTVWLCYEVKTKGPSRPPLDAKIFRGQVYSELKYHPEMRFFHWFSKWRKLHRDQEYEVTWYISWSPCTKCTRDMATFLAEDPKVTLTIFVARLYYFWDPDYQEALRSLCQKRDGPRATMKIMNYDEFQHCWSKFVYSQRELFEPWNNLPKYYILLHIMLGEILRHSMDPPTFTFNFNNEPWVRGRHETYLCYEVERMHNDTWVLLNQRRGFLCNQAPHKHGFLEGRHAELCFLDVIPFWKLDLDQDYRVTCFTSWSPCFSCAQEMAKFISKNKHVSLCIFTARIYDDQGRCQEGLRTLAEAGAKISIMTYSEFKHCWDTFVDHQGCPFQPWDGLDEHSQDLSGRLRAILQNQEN
Chain of FAD-linked sulfhydryl oxidase ALR (P55789 whole entry): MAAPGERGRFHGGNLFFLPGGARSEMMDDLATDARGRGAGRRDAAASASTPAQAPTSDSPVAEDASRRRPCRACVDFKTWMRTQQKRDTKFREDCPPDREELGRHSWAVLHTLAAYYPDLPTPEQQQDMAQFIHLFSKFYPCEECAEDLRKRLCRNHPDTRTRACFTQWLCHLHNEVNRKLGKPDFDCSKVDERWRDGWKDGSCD

By IC50 is commonly meant the concentration at which inhibition is half-maximal. As to `Nc1ccccc1SSc1ccccc1N`, the results for the 50% inhibitory concentration (IC50) in [1] and in test [2] were 25.8 µM (active) and 86.1 µM (active), respectively.

As usually defined, the EC50 is the midpoint of the concentration-response curve. `C=C(C)CNC(=O)c1ccc2nc(Cc3ccc(OC)cc3)oc2c1`: the EC50 in test [3] was 15.1 µM (active); in [4] it was > 350 µM (not active).

As for `COC(=O)Cc1sc(-c2ccccn2)nc1-c1ccccc1`, in test [1], the IC50 was 41.1 µM (active).

As for `Cc1cc2ccccn2c1C(=O)c1ccc(NN)c([N+](=O)[O-])c1`, in test [5], the IC50 is > 80 µM (inactive).

As for `COCCCNC(=O)COc1ccc(-c2nccc(-c3ccccn3)n2)cc1`, the IC50 in [5] is > 80 µM (inactive).

Take `CCC1CCc2sc(C(=O)O)cc2C1` (stereo not drawn): the EC50 in test [3] and in test [4] was > 350 µM (not active) in each case.

With `CN(C)S(=O)(=O)c1ccc(NC(=O)N2CCN(c3ccccc3)CC2)cc1`, the IC50 in test [5] is > 80 µM (inactive).

Regarding `Cc1cc(O)nc2c(C)cc(S(=O)(=O)N3CCCCC3)cc12`, in test [5], the IC50 is > 80 µM (inactive).

For the compound `C[C@@H]1O[C@@H](OC2C(O)C(OCCc3ccc(O)c(O)c3)OC(CO)C2OC(=O)/C=C/c2ccc(O)c(O)c2)[C@H](O)[C@H](O)[C@H]1O` (stereo partly drawn), the IC50 in test [6] was 3.26 µM (active).

`O=C(CCCCl)NC1=NN(c2ccccc2)C(=O)C1`: in test [6], the half-maximal inhibitory concentration (IC50) was 30.9 µM (active).

Turning to `COc1ccc2c(C)cc3n[nH]c(=S)n3c2c1`, the IC50 in test [1] is > 100 µM (inactive); in test [2], 20.6 µM (active).

For the compound `CC1(C)O[C@@H]2[C@H](O1)[C@@H](COS(=O)(=O)O)O[C@H]2n1c(S)nc2c(O)nc(N)nc21`, the IC50 in test [1] is 34.8 µM (active); in test [2], 53.7 µM (active).

With `COCCCN=C(S)NN=C(S)Nc1ccc(F)cc1F`, the half-maximal inhibitory concentration (IC50) in test [1] is 10.1 µM (active).

Regarding `CCOC(=O)Cc1nn(CC)c(=O)c2ccccc12`, the 50% effective concentration (EC50) in test [3] and in test [4] was > 350 µM (not active) in each case.

Take `Cc1nnc2c3ccccc3c(-c3ccccc3)nn12`: the IC50 in [5] was > 80 µM (inactive).

As for `Nc1nnc(S)n1-c1ccc(Cl)cc1`, the IC50 in test [1] is 23.7 µM (active).

For the compound `CC(C)c1nnc(NC(=O)CCC(=O)NC2CC2)s1`, the concentration giving a half-maximal response (EC50) in [3] was > 350 µM (not active); in test [7], > 112 µM (not active); in test [4] it was > 350 µM (not active); in test [8], > 112 µM (not active).

Take `FC(F)(F)c1ccc(CSc2ccccn2)cc1`: the results for the 50% effective concentration (EC50) in test [3] and in test [4] were 70 µM (active) and > 350 µM (not active), respectively.

Turning to `CCn1c(CN2CCN(c3ccc(Cl)cc3)CC2)nc2ccccc21`, the IC50 in [5] was > 80 µM (inactive).

What is called AC50 is the concentration giving half of the maximal activity seen. Regarding `COc1cc(/C=c2\sc3n(c2=O)CCCN=3)ccc1O`, the values for the IC50 in test [6] and in test [2] were 16.2 µM (active) and 15.6 µM (active), respectively. The AC50 in [9] was 4.19 µM (active).

Turning to `COc1cc(/C=N/NC(=O)c2ccccc2)ccc1O`, the IC50 is 10.5 µM (active) in [6] and 29.9 µM (active) in test [2].

In the case of `NS(=O)(=O)c1ccc(N/N=C/c2ccc[nH]2)c([N+](=O)[O-])c1`, in test [6], the IC50 is 65.5 µM (active).

Turning to `COc1cc(/C=N/Nc2nc(Nc3ccccc3)nc(N3CCOCC3)n2)ccc1OC(=O)c1ccco1`, the IC50 in [5] was > 80 µM (inactive). Besides, the EC50 is 0.895 µM (active) in test [10] and 6.73 µM (active) in [11].
